Assay results reported in patent publication US9409952B2, “Peptide-compound cyclization method” (Chugai Seiyaku Kabushiki Kaisha, priority 2011, dated 2016).
Like-named read-outs stand apart in the source and are kept apart here. Starred links: 1 amine or outer side, 2 acyl side, 3 side chain; linkers in the order of their positions; H or OH if unused. Positions of bridges follow the written chain, without caps; N, C: chain ends. Non-standard residues stand in square brackets, D forms with d. Residues, ends and D or L forms follow the SMILES beside them. *: point of attachment. Phe(4-(CH2)5CO) = O=C([C@H](Cc1ccc(CCCCCC(=O)[*:3])cc1)N[*:1])[*:2]; Phe(3-(CH2)4CO) = O=C([C@H](Cc1cccc(CCCCC(=O)[*:3])c1)N[*:1])[*:2]; NMePhe(3-Cl) = CN[C@@H](Cc1cccc(Cl)c1)C(=O)O; NEtPhe = CCN[C@@H](Cc1ccccc1)C(=O)O; NMeF = CN[C@@H](Cc1ccccc1)C(=O)O; NMeGABA = CN(CCCC(=O)[*:2])[*:1]; NMeI = CC[C@H](C)[C@H](NC)C(=O)O; NMeβAla = CN(CCC(=O)[*:2])[*:1]; NMeL = CN[C@@H](CC(C)C)C(=O)O; NMeV = CN[C@H](C(=O)O)C(C)C; NMeA = CN[C@@H](C)C(=O)O; Piperidide = C1CCN(*)CC1; dNMeA = CN[C@H](C)C(=O)O; β3hA = C[C@H](N)CC(=O)O; Sar = CNCC(=O)O; tBu = CC(C)(C)*

Key:
[1] = PAMPA (parallel artificial membrane permeability assay); assay type: in vitro ADME; settings: for Papp at 18 hours, 50 µM: PAMPA
Method in brief: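 Artificial membrane was 10% (w/v) egg lecithin plus 0.5% (w/v) cholesterol in dodecane on a PVDF filter. A 10 mM DMSO stock was added at 0.5% (v/v) to donor buffer (50 mM MOPSO, pH 6.5, 5.0% glycocholic acid). After 18 h at 37 °C, LC/MS or LC/UV gave donor and acceptor levels for Pe.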

[2] = Metabolic stability in human hepatic microsome; assay type: in vitro ADME; settings: microsomes
[3] = membrane permeation rate (Pe), 50 mM MOPSO buffer pH 6.5 with 5.0% glycocholic acid, 37° C., 18 hours, read-out: iPAMPA Pe
[4] = pH 7.4, human hepatic microsome, NADPH(+), read-out: CL NADPH(+)

| Structure (SMILES) | Papp at 18 hours, 50 µM [1, 3] | microsomal CLint at 1 uM [2, 4] | Papp at 18 hours, 50 µM ([1]; pH 6.5) | microsomal CLint at 1 uM ([2]; human, pH 7.4, CL NADPH(+)) | iPAMPA Pe ([1]; membrane permeation rate (Pe), 50 mM MOPSO buffer pH 6.5 with 5.0% glycocholic acid, 37° C., 18 hours) |
| --- | --- | --- | --- | --- | --- |
| CC(C)C[C@H]1C(=O)N(C)[C@@H](CC(C)C)C(=O)N(C)[C@@H](CC(C)C)C(=O)N[C@H](C(=O)N2CCCCC2)CC(=O)N(C)CCC(=O)N[C@@H]([C@@H](C)O)C(=O)N(C)[C@@H](C)C(=O)N(C)[C@@H](Cc2ccccc2)C(=O)N(C)[C@@H](Cc2ccccc2)C(=O)NCC(=O)N1C [DP-174] ([NMeβAla]T[NMeA][NMeF][NMeF]G[NMeL][NMeL][NMeL]D-Piperidide; lactam N-10) | 22 ×10⁻⁶ cm/s | 66 µL/min/mg |  |  |  |
| CC(C)C[C@H]1C(=O)N(C)[C@@H](Cc2ccccc2)C(=O)N(C)[C@@H](CC(C)C)C(=O)N[C@@H]([C@@H](C)O)C(=O)N(C)CC(=O)N[C@@H](COC(C)(C)C)C(=O)N(C)[C@@H](CC(C)C)C(=O)N[C@H](C(=O)N2CCCCC2)CC(=O)N1C [DP-689] ([NMeL][NMeF][NMeL]T[Sar]S(tBu)[NMeL]D-Piperidide; lactam N-8) | 44 ×10⁻⁶ cm/s | 103 µL/min/mg |  |  |  |
| CC(C)C[C@H]1C(=O)N[C@@H](COC(C)(C)C)C(=O)N[C@H](C(=O)N2CCCCC2)CC(=O)N[C@H](C(C)C)C(=O)N(C)[C@@H](Cc2ccccc2)C(=O)N(C)[C@@H](C)C(=O)N(C)[C@@H](CC(C)C)C(=O)N[C@@H]([C@@H](C)O)C(=O)N(C)[C@@H](C)C(=O)N1C [DP-266] ([dV][NMeF][NMeA][NMeL]T[NMeA][NMeL]S(tBu)D-Piperidide; lactam N-9) | 43 ×10⁻⁶ cm/s | 134 µL/min/mg |  |  |  |
| CCN1C(=O)CCCCc2cccc(c2)C[C@@H](C(=O)N2CCCCC2)NC(=O)[C@H](CC(C)C)N(C)C(=O)CN(C)C(=O)[C@H]([C@@H](C)O)NC(=O)[C@H](CC(C)C)N(C)C(=O)[C@H](Cc2ccccc2)N(C)C(=O)[C@H](C)NC(=O)[C@@H]1Cc1ccccc1 [DP-863] ([NEtPhe]A[NMeF][NMeL]T[Sar][NMeL][Phe(3-(CH2)4CO)]-Piperidide; lactam N-8) |  |  | 35 ×10⁻⁶ cm/s | 927 µL/min/mg |  |
| CC[C@H](C)[C@H]1C(=O)N(C)[C@@H](CC(C)C)C(=O)N[C@@H]([C@@H](C)O)C(=O)N[C@H](C(=O)N2CCCCC2)CC(=O)N[C@H](C(C)C)C(=O)N(C)[C@@H](C)C(=O)N(C)[C@@H](CC(C)C)C(=O)N(C)[C@@H](Cc2ccccc2)C(=O)N[C@@H](C)C(=O)N(C)[C@@H](CC(C)C)C(=O)N(C)[C@@H](Cc2ccccc2)C(=O)N1C [DP-234] ([dV][NMeA][NMeL][NMeF]A[NMeL][NMeF][NMeI][NMeL]TD-Piperidide; lactam N-11) | 2 ×10⁻⁶ cm/s | 91 µL/min/mg |  |  |  |
| CC[C@H](C)[C@H](NC(=O)[C@H](CC(C)C)N(C)C(=O)CN(C)C(=O)[C@@H](NC(=O)[C@@H]1CC(=O)N[C@H](C(C)C)C(=O)N[C@@H](C)C(=O)N[C@@H]([C@@H](C)O)C(=O)N(C)[C@@H](C)C(=O)N[C@@H](Cc2ccccc2)C(=O)N(C)[C@@H](CC(C)C)C(=O)N(C)[C@@H](Cc2ccccc2)C(=O)N(C)[C@@H](CC(C)C)C(=O)N1)C(C)C)C(=O)N1CCCCC1 [DP-939] ([dV]AT[NMeA]F[NMeL][NMeF][NMeL]DV[Sar][NMeL]I-Piperidide; lactam N-9) | 3.6 ×10⁻⁶ cm/s | 8 µL/min/mg |  |  |  |
| CC(C)C[C@@H]1NC(=O)[C@H](Cc2ccccc2)N(C)C(=O)[C@H](CC(C)C)N(C)C(=O)[C@@H](C)N(C)C(=O)C[C@@H](C(=O)N2CCCCC2)NC(=O)[C@H](CC(C)C)N(C)C(=O)[C@H](Cc2ccccc2)N(C)C(=O)[C@H]([C@@H](C)O)NC(=O)[C@H](Cc2ccccc2)N(C)C1=O [DP-441] ([dNMeA][NMeL][NMeF]L[NMeF]T[NMeF][NMeL]D-Piperidide; lactam N-9) | 37 ×10⁻⁶ cm/s | 123 µL/min/mg |  |  |  |
| CC[C@H](C)[C@@H]1NC(=O)[C@H](C)N(C)C(=O)[C@H](CC(C)C)N(C)C(=O)CCCN(C)C(=O)C[C@@H](C(=O)N2CCCCC2)NC(=O)[C@H](C)N(C)C(=O)[C@H](Cc2ccccc2)N(C)C(=O)[C@H]([C@@H](C)O)NC(=O)[C@H](Cc2ccccc2)N(C)C(=O)[C@H](CC(C)C)N(C)C1=O [DP-487] ([NMeGABA][NMeL][NMeA]I[NMeL][NMeF]T[NMeF][NMeA]D-Piperidide; lactam N-10) | 24 ×10⁻⁶ cm/s | 386 µL/min/mg |  |  |  |
| CC[C@H](C)[C@H]1C(=O)N(C)[C@@H](CC(C)C)C(=O)N[C@@H]([C@@H](C)O)C(=O)N2CCC[C@H]2C(=O)N[C@@H](Cc2ccccc2)C(=O)N[C@H](C(=O)N2CCCCC2)CC(=O)N(C)CC(=O)N(C)[C@@H](CC(C)C)C(=O)N[C@@H](Cc2ccccc2)C(=O)N[C@@H](CC(C)C)C(=O)NCC(=O)N1C [DP-106] ([Sar][NMeL]FLG[NMeI][NMeL]TPFD-Piperidide; lactam N-11) |  |  | 34 ×10⁻⁶ cm/s | 155 µL/min/mg |  |
| CC[C@H](C)[C@H]1C(=O)N[C@@H]([C@@H](C)O)C(=O)N(C)CC(=O)N(C)[C@@H](CC(C)C)C(=O)N[C@H](C(=O)N2CCCCC2)Cc2ccc(cc2)CCCCCC(=O)N[C@@H](CC(C)C)C(=O)N(C)[C@@H](CC(C)C)C(=O)N(C)[C@@H](Cc2ccccc2)C(=O)N[C@@H](C)C(=O)N(C)[C@@H](Cc2ccccc2)C(=O)N1C [DP-856] (L[NMeL][NMeF]A[NMeF][NMeI]T[Sar][NMeL][Phe(4-(CH2)5CO)]-Piperidide; lactam N-10) | 0.44 ×10⁻⁶ cm/s | 183 µL/min/mg |  |  |  |
| CC[C@H](C)[C@H](NC(=O)[C@H](CC(C)C)N(C)C(=O)[C@H](CC(C)C)N(C)C(=O)[C@H](Cc1ccccc1)N(C)C(=O)[C@@H]1CC(=O)N[C@H](C(C)C)C(=O)N(C)[C@@H](Cc2cccc(Cl)c2)C(=O)N(C)[C@@H](C)C(=O)N(C)[C@@H](CC(C)C)C(=O)N[C@@H]([C@@H](C)O)C(=O)N(C)[C@@H](CC(C)C)C(=O)N1)C(=O)N1CCCCC1 [DP-916] ([dV][NMePhe(3-Cl)][NMeA][NMeL]T[NMeL]D[NMeF][NMeL][NMeL]I-Piperidide; lactam N-7) |  | 55 µL/min/mg |  |  | 1.0E−07 |
| CC[C@H](C)[C@H]1C(=O)N[C@H](C(=O)N2CCCCC2)CC(=O)N(C)[C@H](C)C(=O)N(C)[C@@H](C)C(=O)N(C)CC(=O)N(C)[C@@H](CC(C)C)C(=O)N[C@@H]([C@@H](C)O)C(=O)N(C)[C@@H](Cc2ccccc2)C(=O)N(C)[C@@H](CC(C)C)C(=O)N[C@@H](COC(C)(C)C)C(=O)N1C [DP-144] ([dNMeA][NMeA][Sar][NMeL]T[NMeF][NMeL]S(tBu)[NMeI]D-Piperidide; lactam N-10) |  |  | 65 ×10⁻⁶ cm/s | 125 µL/min/mg |  |
| CC[C@H](C)[C@@H]1NC(=O)[C@H](C)N(C)C(=O)[C@H](C)N(C)C(=O)[C@H]([C@@H](C)O)NC(=O)[C@H](CC(C)C)N(C)C(=O)[C@H](CC(C)C)NC(=O)[C@H](Cc2ccccc2)N(C)C(=O)[C@@H](C)NC(=O)C[C@@H](C(=O)N(C)[C@@H](Cc2ccccc2)C(=O)N[C@@H](C)C(=O)N2CCCCC2)NC(=O)[C@H](C(C)C)N(C)C(=O)[C@H](Cc2ccccc2)N(C)C1=O [DP-180] ([dA][NMeF]L[NMeL]T[NMeA][NMeA]I[NMeF][NMeV]D[NMeF]A-Piperidide; lactam N-11) | 23 ×10⁻⁶ cm/s | 35 µL/min/mg |  |  |  |
| CC[C@H](C)[C@@H]1NC(=O)[C@H](C)N(C)C(=O)[C@H]([C@@H](C)O)NC(=O)[C@H](C(C)C)N(C)C(=O)[C@@H](C)N(C)C(=O)C[C@H](C)NC(=O)[C@H](Cc2ccccc2)NC(=O)[C@H](C)NC(=O)[C@H](Cc2ccccc2)N(C)C1=O [DP-819] (cyclo(AF[β3hA][dNMeA][NMeV]T[NMeA]I[NMeF])) | 30 ×10⁻⁶ cm/s | 134 µL/min/mg |  |  |  |
| CC(C)C[C@H]1C(=O)N(C)[C@@H](C)C(=O)N(C)[C@@H](CC(C)C)C(=O)N[C@H](C(=O)N(C)[C@@H](Cc2ccccc2)C(=O)N(C)[C@@H](Cc2ccccc2)C(=O)N[C@@H](C)C(=O)N2CCCCC2)CC(=O)N(C)CCCC(=O)N[C@@H]([C@@H](C)O)C(=O)N(C)[C@@H](Cc2ccccc2)C(=O)N(C)[C@@H](CC(C)C)C(=O)N[C@@H](C(C)C)C(=O)N1C [DP-403] ([NMeGABA]T[NMeF][NMeL]V[NMeL][NMeA][NMeL]D[NMeF][NMeF]A-Piperidide; lactam N-9) | 18 ×10⁻⁶ cm/s | 57 µL/min/mg |  |  |  |
| CC(C)C[C@H]1C(=O)N(C)[C@@H](C)C(=O)N(C)[C@@H](Cc2ccccc2)C(=O)N[C@@H]([C@@H](C)O)C(=O)N(C)[C@@H](C)C(=O)N(C)[C@@H](Cc2ccccc2)C(=O)N[C@H](C(=O)N(C)[C@@H](Cc2ccccc2)C(=O)N[C@@H](C)C(=O)N2CCCCC2)CC(=O)N(C)[C@@H](C)C(=O)N(C)[C@@H](C)C(=O)N(C)[C@@H](CC(C)C)C(=O)N[C@@H](C)C(=O)N1C [DP-344] ([NMeA][NMeA][NMeL]A[NMeL][NMeA][NMeF]T[NMeA][NMeF]D[NMeF]A-Piperidide; lactam N-11) | 22 ×10⁻⁶ cm/s | 30 µL/min/mg |  |  |  |
| CC[C@H](C)[C@@H]1NC(=O)[C@H](CC(C)C)N(C)C(=O)[C@H](C)N(C)C(=O)[C@H]([C@@H](C)O)NC(=O)[C@H](C)N(C)C(=O)[C@H](C(C)C)N(C)C(=O)[C@H](Cc2ccccc2)NC(=O)CCN(C)C(=O)C[C@@H](C(=O)N(C)[C@@H](Cc2ccccc2)C(=O)N[C@@H](C)C(=O)N2CCCCC2)NC(=O)[C@H](C)N(C)C1=O [DP-490] ([NMeβAla]F[NMeV][NMeA]T[NMeA][NMeL]I[NMeA]D[NMeF]A-Piperidide; lactam N-10) | 11 ×10⁻⁶ cm/s | 27 µL/min/mg |  |  |  |
